Consider 24 molecules from patent publication US9896445B2, “Heterocyclic inhibitors of ERK1 and ERK2 and their use in the treatment of cancer” (Asana Biosciences, LLC, priority 2015, dated 2018).

In one assay the target is T1, ERK1 (Homo sapiens, UniProt P27361).
T1 construct: purchased Jubilant Biosys
Description: ERK1 HTRF (biochemical) assay. The conditions noted are these: HTRF. On the procedure: (§1) ERK1 and ERK2 HTRF (Biochemical) Assays
These assays employed a homogeneous time resolved fluorescence (HTRF) technique. […] The plate was incubated at room temperature for 60 min with shaking. […] The IC50 values (half maximal inhibitory concentration values) were subsequently determined using a sigmoidal dose-response curve (variable slope) in GraphPad Prism® 5 software.
On the technique in general: TR-FRET usually uses a lanthanide donor and a delayed reading to cut background.

The target in the next assay is T2, ERK2 (Homo sapiens, UniProt P28482).
T2 construct: purchased Jubilant Biosys
T2 sequence (P28482 whole entry): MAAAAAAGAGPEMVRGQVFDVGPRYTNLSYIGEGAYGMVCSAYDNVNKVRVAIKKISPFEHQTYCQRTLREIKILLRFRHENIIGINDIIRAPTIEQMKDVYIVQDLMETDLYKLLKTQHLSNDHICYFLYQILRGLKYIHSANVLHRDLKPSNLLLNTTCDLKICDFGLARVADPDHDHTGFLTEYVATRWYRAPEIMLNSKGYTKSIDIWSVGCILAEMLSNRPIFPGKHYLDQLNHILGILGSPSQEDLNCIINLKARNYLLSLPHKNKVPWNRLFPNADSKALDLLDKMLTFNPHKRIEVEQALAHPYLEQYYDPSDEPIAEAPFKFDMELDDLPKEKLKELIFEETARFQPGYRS
The assay can be described thus: ERK2 HTRF (biochemical) assay. The conditions noted are these: HTRF. On the procedure: as §1
These assays employed a homogeneous time resolved fluorescence (HTRF) technique. The compounds were serially diluted by half-log with concentrations ranging from 0.0005 to 10 uM in the assay buffer (50 mM Tris pH=7.5, 1 mM EGTA, 2 mM DTT, 10 mM MgCl2, 0.1% Tween-20) and 20 uL of substrate-ATP mix [1 uM Biotin-LC-Myelin Basic Protein (MBP) derivatized Peptide (Anaspec)-24 uM ATP (Sigma)] was added to each well of the assay plate. Then 10 uL of enzyme mix [25 nM ERK1 or ERK2 (Jubilant Biosys) in assay buffer] was added to each well. The plate was incubated at room temperature for 60 min with shaking. The HTRF mix [625 nM LANCE® Ultra Europium-anti-phospho-MBP (Perkin Elmer) and 2 nM Phycolink® Streptavidin-Allophycocyanin (SA-APC) (Prozyme) in HTRF buffer (50 mM Tris-HCl pH=7.5, 100 mM NaCl, 0.1% BSA, 0.05% Tween20, 0.5 mM EDTA)] was prepared and 75 uL of this mix was added to the HTRF plate. After incubation for 60 min at room temperature, 10 uL of the reaction mixture was transferred to the HTRF assay plate and incubated for 45 min at room temperature with shaking. Plate was read using Pherastar in HTRF mode (excitation 337 nm, emission 665 & 620 nm). The IC50 values (half maximal inhibitory concentration values) were subsequently determined using a sigmoidal dose-response curve (variable slope) in GraphPad Prism® 5 software.

T1 sequence (P27361 whole entry): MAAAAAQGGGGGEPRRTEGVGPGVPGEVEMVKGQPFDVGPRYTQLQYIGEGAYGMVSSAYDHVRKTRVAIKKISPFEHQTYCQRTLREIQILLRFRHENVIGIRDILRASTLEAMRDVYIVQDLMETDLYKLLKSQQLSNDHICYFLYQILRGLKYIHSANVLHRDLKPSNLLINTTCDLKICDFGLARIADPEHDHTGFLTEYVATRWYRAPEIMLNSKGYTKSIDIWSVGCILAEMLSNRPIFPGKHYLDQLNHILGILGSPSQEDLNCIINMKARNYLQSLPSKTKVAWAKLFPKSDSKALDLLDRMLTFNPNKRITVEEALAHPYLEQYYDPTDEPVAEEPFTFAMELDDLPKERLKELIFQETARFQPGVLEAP

In general, IC50 refers to the point on the concentration scale where inhibition reaches its midpoint. High values mean weaker potency in that assay, low ones greater potency in that assay. As for `Cc1cnc(Nc2ccccc2Cl)nc1-n1cc(NC(=O)NC(CO)c2cccc(Cl)c2)cn1` (stereo not drawn) [Compound 43, 1-(1-(3-chlorophenyl)-2-hydroxyethyl)-3-(1-(2-((2-chloro-phenyl)amino)-5-methylpyrimidin-4-yl)-1H-pyrazol-4-yl)urea], the IC50 at ERK1 and against ERK2 was over 2.5 µM each time.
For the molecule `Cc1cnc(Nc2ccc3c(c2)OCO3)nc1-n1cc(NC(=O)N[C@H](CO)c2cccc(Cl)c2)cn1` [Compound 44, (S)-1-(1-(2-(benzo[d][1,3]dioxol-5-ylamino)-5-methylpyrimidin-4-yl)-1H-pyrazol-4-yl)-3-(1-(3-chloro-phenyl)-2-hydroxy-ethyl)urea], the IC50 at ERK1 was 0.05 to 0.1 µM; at ERK2, at most 0.05 µM.
As for `Cc1cnc(Nc2ccc(F)cc2Cl)nc1-n1cc(C(=O)NC(CO)c2cccc(Cl)c2)cn1` (stereo not drawn) [Compound 45, 1-(2-((2-chloro-4-fluorophenyl)amino)-5-methyl-pyrimidin-4-yl)-N-(1-(3-chlorophenyl)-2-hydroxyethyl)-1H-pyrazole-4-carboxamide], the IC50 against ERK1 was under 0.05 µM; against ERK2, at most 0.05 µM.
For `O=C(NC(CO)c1cccc(Cl)c1)c1ccn(-c2ccnc(Nc3ccccc3)c2)c1` (stereo not drawn) [Compound 46, N-(1-(3-chloro-phenyl)-2-hydroxy-ethyl)-1-(2-(phenyl-amino)pyridin-4-yl)-1H-pyrrole-3-carboxamide] the same measures were under 0.05 µM and at most 0.05 µM.
For `Cc1cnc(Nc2ccc3c(c2)OCO3)nc1-n1ccc(C(=O)NC(CO)c2ccccc2)c1` (stereo not drawn) [Compound 47, 1-(2-(benzo[d][1,3]dioxol-5-ylamino)-5-methylpyrimidin-4-yl)-N-(2-hydroxy-1-phenylethyl)-1H-pyrrole-3-carboxamide], in that order: under 0.05 µM and at most 0.05 µM.
For the molecule `Cc1cnc(Nc2ccc3c(c2)OCO3)nc1-n1cnc(C(=O)N[C@H](CO)c2cccc(Cl)c2)c1` [Compound 48, (S)-1-(2-(benzo[d][1,3]dioxol-5-ylamino)-5-methylpyrimidin-4-yl)-N-(1-(3-chloro-phenyl)-2-hydroxy-ethyl)-1H-imidazole-4-carboxamide], the IC50 was under 0.05 µM on ERK1 and at most 0.05 µM on ERK2.
In the case of `Cc1cnc(Nc2ccc3c(c2)OCO3)nc1-n1cc(NC(=O)N[C@@H](CO)c2cccc(Cl)c2)cn1` [Compound 51, (R)-1-(1-(2-(benzo[d][1,3]dioxol-5-ylamino)-5-methylpyrimidin-4-yl)-1H-pyrazol-4-yl)-3-(1-(3-chloro-phenyl)-2-hydroxy-ethyl)urea], the IC50 against ERK1 fell in the range of 0.1 to 0.5 µM; against ERK2 it was 0.05 to 0.1 µM.
As to `O=C(N[C@H](CO)c1cccc(Cl)c1)c1cnn(-c2ccnc(Nc3ccccc3)n2)c1` [Compound 53, (S)-N-(1-(3-chlorophenyl)-2-hydroxyethyl)-1-(2-(phenylamino)pyrimidin-4-yl)-1H-pyrazole-4-carboxamide], the IC50 against ERK1 and at ERK2 was 0.1 to 0.5 µM each time.
Consider `Cc1cnc(Nc2ccc(F)cc2Cl)nc1-n1cc(C(=O)NC(CN)c2ccccc2)cn1` (stereo not drawn) [Compound 54, N-(2-amino-1-phenylethyl)-1-(2-((2-chloro-4-fluoro-phenyl)amino)-5-methylpyrimidin-4-yl)-1H-pyrazole-4-carboxamide], for which the IC50 against ERK1 was 0.05 to 0.1 µM; on ERK2, at most 0.05 µM.
`Cc1cnc(Nc2ccc(F)cc2Cl)nc1-n1ccc(C(=O)N[C@H](CO)c2cccc(Cl)c2)c1` [Compound 57, (S)-1-(2-((2-chloro-4-fluorophenyl)-amino)-5-methyl-pyrimidin-4-yl)-N-(1-(3-chlorophenyl)-2-hydroxyethyl)-1H-pyrrole-3-carboxamide]: the IC50 was under 0.05 µM against ERK1 and at most 0.05 µM against ERK2.
For the molecule `Cc1cnc(Nc2ccc3c(c2)OCO3)nc1-n1ccc(C(=O)NC(CO)c2cc(Cl)cc(Cl)c2)c1` (stereo not drawn) [Compound 58, 1-(2-(benzo[d][1,3]dioxol-5-ylamino)-5-methylpyrimidin-4-yl)-N-(1-(3,5-dichlorophenyl)-2-hydroxyethyl)-1H-pyrrole-3-carboxamide], the values for the IC50 against ERK1 and on ERK2 were under 0.05 µM and at most 0.05 µM, respectively.
Regarding `Cc1cnc(Nc2ccc3c(c2)OCO3)nc1-n1ccc(C(=O)N[C@H](CO)Cc2ccccc2)c1` [Compound 59, (S)-1-(2-(benzo[d][1,3]dioxol-5-ylamino)-5-methylpyrimidin-4-yl)-N-(1-hydroxy-3-phenylpropan-2-yl)-1H-pyrrole-3-carboxamide], the IC50 was 0.05 to 0.1 µM on ERK1 and at most 0.05 µM on ERK2.
Turning to `Cc1cnc(Nc2ccc3c(c2)OCO3)nc1-n1ccc(C(=O)N[C@H](CO)c2ccccc2)c1` [Compound 60, (S)-1-(2-(benzo[d][1,3]dioxol-5-ylamino)-5-methylpyrimidin-4-yl)-N-(2-hydroxy-1-phenylethyl)-1H-pyrrole-3-carboxamide], the IC50 against ERK1 is under 0.05 µM; against ERK2, at most 0.05 µM.
For the molecule `Cc1cnc(Nc2ccc3c(c2)OC(F)(F)O3)nc1-n1ccc(C(=O)NC(CO)c2cccc(Cl)c2)c1` (stereo not drawn) [Compound 62, N-(1-(3-chloro-phenyl)-2-hydroxyethyl)-1-(2-((2,2-difluoro-benzo[d][1,3]dioxol-5-yl)amino)-5-methylpyrimidin-4-yl)-1H-pyrrole-3-carboxamide], the IC50 is under 0.05 µM against ERK1 and at most 0.05 µM against ERK2.
For `Cc1cnc(Nc2ccc3c(c2)OC(F)(F)O3)nc1-n1ccc(C(=O)NC(CO)c2ccccc2)c1` (stereo not drawn) [Compound 63, 1-(2-((2,2-difluoro-benzo[d][1,3]dioxol-5-yl)amino)-5-methylpyrimidin-4-yl)-N-(2-hydroxy-1-phenylethyl)-1H-pyrrole-3-carboxamide], in that order: under 0.05 µM and at most 0.05 µM.
In the case of `COC[C@@H](NC(=O)c1ccn(-c2nc(Nc3ccc4c(c3)OCO4)ncc2C)c1)c1ccccc1` [Compound 64, (S)-1-(2-(benzo[d][1,3]dioxol-5-ylamino)-5-methylpyrimidin-4-yl)-N-(2-methoxy-1-phenylethyl)-1H-pyrrole-3-carboxamide], the figures for the IC50 against ERK1 and at ERK2 were under 0.05 µM and at most 0.05 µM, respectively.
For `O=C(NC(CO)c1ccccc1)c1ccn(-c2nc(Nc3ccc4c(c3)OCO4)ncc2F)c1` (stereo not drawn) [Compound 66, 1-(2-(benzo[d][1,3]dioxol-5-ylamino)-5-fluoropyrimidin-4-yl)-N-(2-hydroxy-1-phenylethyl)-1H-pyrrole-3-carboxamide] the same measures were under 0.05 µM and at most 0.05 µM.
Take `O=C(NC(CO)c1ccccc1)c1ccn(-c2nc(Nc3ccccc3Cl)ncc2F)c1` (stereo not drawn) [Compound 67, 1-(2-((2-chloro-phenyl)amino)-5-fluoropyrimidin-4-yl)-N-(2-hydroxy-1-phenylethyl)-1H-pyrrole-3-carboxamide]: the IC50 is under 0.05 µM on ERK1 and at most 0.05 µM on ERK2.
`Cc1cnc(Nc2ccc3occc3c2)nc1-n1ccc(C(=O)NC(CO)c2cccc(Cl)c2)c1` (stereo not drawn) [Compound 68, 1-(2-(benzofuran-5-ylamino)-5-methylpyrimidin-4-yl)-N-(1-(3-chlorophenyl)-2-hydroxyethyl)-1H-pyrrole-3-carboxamide]: the IC50 against ERK1 is under 0.05 µM; on ERK2, at most 0.05 µM.
For the molecule `Cc1cnc(Nc2ccc3c(c2)OC(F)(F)O3)nc1-n1ccc(C(=O)N[C@H](CO)c2ccc(F)c(Cl)c2)c1` [Compound 69, (S)-N-(1-(3-chloro-4-fluorophenyl)-2-hydroxyethyl)-1-(2-((2,2-difluoro-benzo[d][1,3]dioxol-5-yl)amino)-5-methylpyrimidin-4-yl)-1H-pyrrole-3-carboxamide], the IC50 on ERK1 was under 0.05 µM; at ERK2 it was at most 0.05 µM.
For the molecule `Cc1cnc(Nc2ccc3c(c2)OCO3)nc1-n1ccc(C(=O)NC(CO)c2cccc(Cl)c2F)c1` (stereo not drawn) [Compound 70, 1-(2-(benzo[d][1,3]dioxol-5-ylamino)-5-methylpyrimidin-4-yl)-N-(1-(3-chloro-2-fluorophenyl)-2-hydroxyethyl)-1H-pyrrole-3-carboxamide], the IC50 against ERK1 was under 0.05 µM; on ERK2, at most 0.05 µM.
For `O=C(NC(CO)c1ccccc1)c1ccn(-c2ccnc(Nc3ccccc3)c2)c1` (stereo not drawn) [Compound 71, N-(2-hydroxy-1-phenylethyl)-1-(2-(phenylamino)pyridin-4-yl)-1H-pyrrole-3-carboxamide] the same measures were under 0.05 µM and at most 0.05 µM.
On to `O=C(N[C@H](CO)c1cccc(Cl)c1)c1cn(-c2ccnc(Nc3ccccc3)c2)cn1` [Compound 72, (S)-N-(1-(3-chlorophenyl)-2-hydroxyethyl)-1-(2-(phenylamino)pyridin-4-yl)-1H-imidazole-4-carboxamide], for which the IC50 against ERK1 was under 0.05 µM; at ERK2 it was at most 0.05 µM.
Take `Cc1cnc(Nc2ccc(N3CCNCC3)cc2)nc1-n1ccc(C(=O)NC(CO)c2ccccc2)c1` (stereo not drawn) [Compound 73, N-(2-hydroxy-1-phenylethyl)-1-(5-methyl-2-((4-(piperazin-1-yl)-phenyl)amino)pyrimidin-4-yl)-1H-pyrrole-3-carboxamide]: the IC50 at ERK1 was under 0.05 µM; against ERK2 it was at most 0.05 µM.
